The values below come from ChEMBL document CHEMBL1133187, “Novel antiarthritic agents with 1,2-isothiazolidine-1,1-dioxide (gamma-sultam) skeleton: cytokine suppressive dual inhibitors of cyclooxygenase-2 and 5-lipoxygenase” (J Med Chem, 2000).

What is called IC50 is the concentration that gives 50% inhibition. A word on the inhibition in vivo: it is the percentage by which the read-out fell short of the control.

The structures appear in SMILES notation.

The species named for assay [1] is Rattus norvegicus. In words: In vitro inhibitory effect on production of, calcium ionophore (A23187) -induced Leukotriene B4 (LTB4) in rat peritoneal cells. The format is functional, cell-based.
Assay [2] concerns THP-1. In words: In vitro inhibitory effect on production of, lipopolysaccharide (LPS) -induced IL1-beta in human THP-1 cells. The format is functional, cell-based.
Assay [3] is filed under the species Rattus norvegicus. The assay can be described thus: In vitro inhibitory effect on production of, Prostaglandin E2 (PGE2) in rat synovial cells. Type of assay: functional.
Assay [4] addresses T1, Cyclooxygenase (Rattus norvegicus, UniProt P35355+Q63921).
T1 sequence (P35355 whole entry): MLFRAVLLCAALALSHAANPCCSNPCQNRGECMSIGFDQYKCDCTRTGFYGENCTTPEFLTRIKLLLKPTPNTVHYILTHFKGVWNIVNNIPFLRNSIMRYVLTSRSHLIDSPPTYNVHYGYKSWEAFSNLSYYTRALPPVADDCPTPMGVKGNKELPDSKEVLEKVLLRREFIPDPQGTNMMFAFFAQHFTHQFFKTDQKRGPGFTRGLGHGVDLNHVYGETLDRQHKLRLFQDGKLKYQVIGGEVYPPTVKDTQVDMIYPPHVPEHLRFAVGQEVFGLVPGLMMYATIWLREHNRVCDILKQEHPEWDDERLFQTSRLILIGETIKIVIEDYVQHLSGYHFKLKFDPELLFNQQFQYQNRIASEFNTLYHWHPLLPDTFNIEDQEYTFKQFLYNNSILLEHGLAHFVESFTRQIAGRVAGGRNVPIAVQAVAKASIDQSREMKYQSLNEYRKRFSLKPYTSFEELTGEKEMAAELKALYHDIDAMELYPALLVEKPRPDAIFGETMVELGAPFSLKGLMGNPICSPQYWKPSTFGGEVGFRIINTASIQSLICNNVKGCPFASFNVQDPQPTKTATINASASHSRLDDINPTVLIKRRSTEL
T1 sequence (Q63921 whole entry): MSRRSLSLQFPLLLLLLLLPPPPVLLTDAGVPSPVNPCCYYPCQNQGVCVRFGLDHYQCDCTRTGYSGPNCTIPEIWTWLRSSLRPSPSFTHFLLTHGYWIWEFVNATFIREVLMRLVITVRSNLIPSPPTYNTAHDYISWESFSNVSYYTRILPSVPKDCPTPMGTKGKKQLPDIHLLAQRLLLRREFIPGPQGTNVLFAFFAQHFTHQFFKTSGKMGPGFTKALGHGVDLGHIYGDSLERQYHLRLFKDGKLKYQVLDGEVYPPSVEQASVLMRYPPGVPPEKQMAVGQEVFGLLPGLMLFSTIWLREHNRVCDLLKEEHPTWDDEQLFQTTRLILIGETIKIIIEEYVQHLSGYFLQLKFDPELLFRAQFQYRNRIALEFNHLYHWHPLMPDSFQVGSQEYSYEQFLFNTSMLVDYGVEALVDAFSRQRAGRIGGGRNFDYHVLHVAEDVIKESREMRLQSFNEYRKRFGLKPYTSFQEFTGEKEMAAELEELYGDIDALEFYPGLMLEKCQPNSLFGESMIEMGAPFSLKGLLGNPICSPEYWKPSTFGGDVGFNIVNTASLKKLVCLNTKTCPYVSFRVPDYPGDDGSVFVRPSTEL
Description: In vitro inhibitory effect on production of prostaglandin E2 (PGE2) in rat synovial cells.

The species entered for assay [5] is Rattus norvegicus. The assay can be described thus: In vitro effect on production of calcium ionophore (A23187) -induced Leukotriene B4 (LTB4) in rat peritoneal cells. The format is functional, cell-based.
The test system of assay [6] is THP-1. In words: In vitro effect on production of lipopolysaccharide (LPS) -induced IL1-beta in human THP-1 cells. The format is functional, cell-based.
The test system of assay [7] is Rattus norvegicus. In words: Percent inhibition of carrageenan-induced foot-pad edema at 30 mg/kg po. The format is functional. Background: Carrageenan injected into the paw causes an acute inflammation.
Assay [8] has as its system Rattus norvegicus. The assay can be described thus: Percent inhibition of adjuvant-induced arthritis at 10 mg/kg po. Type of assay: functional.
Assay [9] concerns Rattus norvegicus. In words: Dose required for 30% inhibition of carrageenan-induced edema. Type of assay: functional.
Assay [10] is filed under the species Rattus norvegicus. The assay can be described thus: Dose required for 30% inhibition of adjuvant-induced arthritis. The format is functional.
Assay [11] has as its system THP-1. In words: In vitro inhibitory effect on production of lipopolysaccharide (LPS)-induced IL1-beta in human THP-1 cells. Type of assay: functional, cell-based.
The species named for assay [12] is Rattus norvegicus. The assay can be described thus: In vitro inhibitory effect on production of Prostaglandin E2 (PGE2) in rat synovial cells. The format is functional.
For assay [13], the species on record is Rattus norvegicus. The assay can be described thus: In vitro inhibitory effect on production of calcium ionophore (A23187)-induced Leukotriene B4 (LTB4) in rat peritoneal cells. The format is functional, cell-based.
The species entered for assay [14] is Rattus norvegicus.
Description: Lengths of bleeding ulcer of drug-administered group
The species named for assay [15] is Rattus norvegicus. The assay can be described thus: Dose required for Ulcerogenic effect. Type of assay: functional.

With `CCN1CC/C(=C\c2ccc(O)c(OC)c2)S1(=O)=O`, the IC50 was above 100 µM in assay [1], above 100 µM in assay [2] and above 1 µM in [3].
For `CCN1CC/C(=C\c2ccc(O)cc2)S1(=O)=O`, the IC50 in assay [1] was above 100 µM; in [2], above 100 µM; in assay [3] it was above 1 µM.
In turn, `CC(C)N1CC/C(=C\c2cc(C(C)(C)C)c(O)c(C(C)(C)C)c2)S1(=O)=O` displayed an IC50 in assay [4] of 0.32 µM.
`CC(C)(C)c1cc(/C=C2/CCNS2(=O)=O)cc(C(C)(C)C)c1O`: the IC50 in [5] was 1.8 µM; in assay [4], below 0.001 µM; in [6], 27 µM. This molecule also returned an inhibition in vivo at 30 mg/kg in assay [7] of 10.8%.
As to `CC(C)(C)c1cc(/C=C2\CCN(c3ccccn3)S2(=O)=O)cc(C(C)(C)C)c1O`, the IC50 in [4] amounted to 1 µM.
In turn, `CN1OCC/C(=C\c2cc(C(C)(C)C)c(O)c(C(C)(C)C)c2)S1(=O)=O` had an IC50 in assay [4] of 0.2 µM.
With `CCN1CC/C(=C\c2cc(OC)c(O)c(OC)c2)S1(=O)=O`, the IC50 is 2.6 µM in assay [1], above 100 µM in assay [2] and above 1 µM in [3].
With `CON1CC/C(=C\c2cc(C(C)(C)C)c(O)c(C(C)(C)C)c2)S1(=O)=O`, the IC50 is 3 µM in assay [5], below 0.001 µM in assay [4] and above 100 µM in [6]. In assay [8], the inhibition in vivo at 10 mg/kg is 35.2%. Moreover, the ED30 in [9] was 34.7 mg/kg; in [10] it was 2.4 mg/kg. In assay [7], the inhibition in vivo at 30 mg/kg stood at 26.5%.
In assay [4], `CC(C)(C)c1cc(/C=C2\CCN(CC(=O)O)S2(=O)=O)cc(C(C)(C)C)c1O` had an IC50 of 3.4 µM.
In [4], `CC(C)(C)c1cc(/C=C2/CCN(c3ccc(Cl)cc3)S2(=O)=O)cc(C(C)(C)C)c1O` gave an IC50 below 0.001 µM.
For `CCN1CC/C(=C/c2cc(C(C)(C)C)c(O)c(C(C)(C)C)c2)S1(=O)=O`, the IC50 in [5] came to 2.5 µM; in assay [4], 0.0021 µM; in [6], 10 µM. In addition, the inhibition in vivo at 10 mg/kg in assay [8] stood at 11.4%. In [7], this molecule had an inhibition in vivo at 30 mg/kg of 7.3%.
For `CCN1CC/C(=C\c2cc(C(C)C)c(O)c(C(C)C)c2)S1(=O)=O`, the IC50 was above 100 µM in assay [11], above 1 µM in assay [12] and above 100 µM in [13].
`CC(C)(C)c1cc(/C=C2\CCN(C3CC3)S2(=O)=O)cc(C(C)(C)C)c1O`: the IC50 in assay [5] worked out at 3.2 µM; in [4], 0.0025 µM; in [6], 9 µM. The molecule also showed a Ulcer index in [14] of 0.7 mm. Further, the inhibition in vivo at 10 mg/kg in assay [8] came out at 32.9%. For the same molecule, the ED30 in assay [9] was determined as 11.9 mg/kg; in assay [10], 1.7 mg/kg. The inhibition in vivo at 30 mg/kg in assay [7] is 21.4%. In assay [15], the Dose stood at 400 mg/kg.
With `CC(C)(C)c1cc(/C=C2\CCN(O)S2(=O)=O)cc(C(C)(C)C)c1O`, the values for the IC50 in [5], in [4] and in assay [6] were 9.5 µM, 0.01 µM and 90 µM, respectively. The inhibition in vivo at 10 mg/kg in assay [8] came to 3.6%. This molecule also returned an inhibition in vivo at 30 mg/kg in [7] of 15.8%.
For the molecule `CON(C)C(=O)N1CC/C(=C\c2cc(C(C)(C)C)c(O)c(C(C)(C)C)c2)S1(=O)=O`, the IC50 is 28 µM in [5], 0.1 µM in [4] and above 100 µM in assay [6]. The inhibition in vivo at 30 mg/kg in assay [7] worked out at 11.2%.
`CC(C)CN1CC/C(=C\c2cc(C(C)(C)C)c(O)c(C(C)(C)C)c2)S1(=O)=O` showed an IC50 in [4] of 0.41 µM.
